Source: ChEMBL document CHEMBL5506022, “Discovery of Novel Dual Inhibitors Targeting Mutant IDH1 and NAMPT for the Treatment of Glioma with IDH1Mutation” (J Med Chem, 2024)

Legend:
[1] = biological target: Isocitrate dehydrogenase [NADP] cytoplasmic (Homo sapiens, UniProt O75874); test: Inhibition of wildtype IDH1 (unknown origin) using DL-isocitrate as substrate incubated for 60 mins in presence of NADP by fluorescence microplate reader
[2] = biological target: Isocitrate dehydrogenase [NADP] cytoplasmic (Homo sapiens, UniProt O75874, R132C); test: Inhibition of recombinant IDH1 R132C mutant (unknown origin) using alpha-ketoglutarate as substrate incubated for 60 mins in presence of NADPH by fluorescence microplate reader
Sequence of Isocitrate dehydrogenase [NADP] cytoplasmic (Homo sapiens, UniProt O75874, R132C) (O75874 2-414 R132C limits assumed): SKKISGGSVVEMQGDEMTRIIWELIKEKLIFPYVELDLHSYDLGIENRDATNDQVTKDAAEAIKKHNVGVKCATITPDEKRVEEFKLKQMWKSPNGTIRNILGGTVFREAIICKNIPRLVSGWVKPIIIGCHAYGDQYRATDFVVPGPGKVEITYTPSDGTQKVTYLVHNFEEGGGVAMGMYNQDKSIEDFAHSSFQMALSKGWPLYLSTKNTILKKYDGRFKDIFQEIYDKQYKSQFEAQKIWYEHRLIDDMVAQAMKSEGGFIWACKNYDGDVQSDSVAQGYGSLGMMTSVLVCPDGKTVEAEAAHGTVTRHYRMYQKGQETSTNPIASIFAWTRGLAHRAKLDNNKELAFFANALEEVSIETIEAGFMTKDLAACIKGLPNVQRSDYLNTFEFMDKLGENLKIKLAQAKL

[3] = biological target: Nicotinamide phosphoribosyltransferase (Homo sapiens, UniProt P43490)
Sequence of Nicotinamide phosphoribosyltransferase (P43490 whole entry): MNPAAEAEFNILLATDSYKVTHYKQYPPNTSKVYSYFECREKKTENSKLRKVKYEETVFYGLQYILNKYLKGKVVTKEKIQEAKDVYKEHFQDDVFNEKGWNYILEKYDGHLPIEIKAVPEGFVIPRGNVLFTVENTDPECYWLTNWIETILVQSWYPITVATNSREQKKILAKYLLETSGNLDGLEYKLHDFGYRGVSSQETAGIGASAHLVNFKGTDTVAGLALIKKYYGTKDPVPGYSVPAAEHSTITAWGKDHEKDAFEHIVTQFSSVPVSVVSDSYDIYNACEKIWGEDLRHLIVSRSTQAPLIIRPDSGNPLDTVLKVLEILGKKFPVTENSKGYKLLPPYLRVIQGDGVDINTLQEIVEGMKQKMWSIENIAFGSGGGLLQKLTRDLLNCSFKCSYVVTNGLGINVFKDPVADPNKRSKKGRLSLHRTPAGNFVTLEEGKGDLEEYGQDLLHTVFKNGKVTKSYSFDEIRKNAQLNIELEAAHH

[4] = tested on: U-87 MG; test: Antiproliferative activity against human U-87 MG cells harboring wildtype IDH1 assessed as inhibition of cell growth incubated for 24 hrs by CCK8 assay; type: functional, cell-based, U-87MG ATCC
[5] = tested on: U-87 MG; type: functional, cell-based, U-87MG ATCC; details: Homo sapiens, 24 h
[6] = tested on: U-87 MG; test: Antiproliferative activity against human U-87 MG cells harboring wildtype IDH1 assessed as inhibition of cell growth incubated for 72 hrs by CCK8 assay; type: functional, cell-based, U-87MG ATCC
[7] = tested on: U-87 MG; test: Antiproliferative activity against human U-87 MG cells harboring wildtype IDH1 assessed as inhibition of cell growth incubated for 48 hrs by CCK8 assay; type: functional, cell-based, U-87MG ATCC
[8] = tested on: U-87 MG; type: functional, cell-based, U-87MG ATCC; details: Homo sapiens, 72 h
[9] = tested on: U-87 MG; type: functional, cell-based, U-87MG ATCC; details: Homo sapiens, 48 h
[10] = tested on: U-87 MG; type: functional, cell-based, U-87MG ATCC; details: Homo sapiens, 48 h; remark: listed apart in the source
[11] = tested on: U-87 MG; type: functional, Homo sapiens, U-87MG ATCC; details: time 48 hrs
[12] = tested on: U-87 MG; type: functional, U-87MG ATCC; details: Homo sapiens, time 48 hrs, read-out: Activity
[13] = tested on: U-87 MG; type: functional, Homo sapiens, U-87MG ATCC; details: dose 1 µM; time 48 hrs
[14] = tested on: U-87 MG; test: cells; details: Homo sapiens, 48 h, read-out: Activity
[15] = tested on: U-87 MG; type: functional, Homo sapiens, U-87MG ATCC; details: dose 1 µM; time 48 hrs; remark: listed apart in the source
[16] = tested on: U-87 MG; type: functional, Homo sapiens, U-87MG ATCC; details: dose 1 µM; time 48 hrs; remark: listed apart in the source
[17] = tested on: U-87 MG; test: Synergistic antiproliferative activity against human U-87 MG cells harboring wildtype IDH1 assessed as combination index incubated for 48 hrs in presence of FK866 by CCK8 assay; type: functional, U-87MG ATCC
[18] = tested on: U-87 MG; test: Synergistic antiproliferative activity against human U-87 MG cells harboring wildtype IDH1 assessed as inhibition of cell growth incubated for 48 hrs in presence of FK866 by CCK8 assay; type: functional, cell-based, U-87MG ATCC
[19] = tested on: U-87 MG; type: functional, Homo sapiens, U-87MG ATCC; details: time 48 hrs; remark: listed apart in the source

Sequence of Isocitrate dehydrogenase [NADP] cytoplasmic (Homo sapiens, UniProt O75874) (O75874 whole entry): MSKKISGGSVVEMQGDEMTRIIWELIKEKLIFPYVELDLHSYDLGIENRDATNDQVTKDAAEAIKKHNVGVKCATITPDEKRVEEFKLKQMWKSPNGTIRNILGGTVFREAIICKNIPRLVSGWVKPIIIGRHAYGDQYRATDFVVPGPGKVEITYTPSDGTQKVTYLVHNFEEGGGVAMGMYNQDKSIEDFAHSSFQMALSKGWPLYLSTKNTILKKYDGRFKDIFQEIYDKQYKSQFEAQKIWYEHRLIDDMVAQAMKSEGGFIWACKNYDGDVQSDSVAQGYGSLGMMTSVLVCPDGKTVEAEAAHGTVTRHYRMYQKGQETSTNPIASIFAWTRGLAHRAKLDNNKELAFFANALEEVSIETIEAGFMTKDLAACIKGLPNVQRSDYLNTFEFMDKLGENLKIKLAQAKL

SMILES | IC50 [1] | IC50 [2] | IC50 [3] | further results
CC(C)[C@H]1COC(=O)N1c1ccnc(N[C@@H](C)c2ccc(NC(=O)CCCNC(=O)/C=C/c3cccnc3)cc2)n1 | 9400 nM | 355 nM | 45.7 nM | –
C[C@H](Nc1nccc(N2C(=O)OC[C@@H]2[C@@H](C)O)n1)c1ccc(-c2ccc(NC(=O)COc3cccnc3)cc2)cc1 | 6940 nM | 138 nM | 42.2 nM | –
CC(C)[C@H]1COC(=O)N1c1ccnc(N[C@@H](C)c2ccc(-c3ccc(NC(=O)c4cnc5[nH]ccc5c4)cc3)cc2)n1 | 6440 nM | 17.7 nM | 162 nM | –
CC(C)[C@H]1COC(=O)N1c1ccnc(N[C@@H](C)c2ccc(NC(=O)C3CCN(C(=O)/C=C/c4cccnc4)CC3)cc2)n1 | 11100 nM | 308 nM | 81.2 nM | –
C[C@H](Nc1nccc(N2C(=O)OC[C@@H]2Cc2ccccc2)n1)c1ccc(-c2ccc(NC(=O)/C=C/c3cccnc3)cc2)cc1 | 32800 nM | 130 nM | 38 nM | –
C[C@H](Nc1nccc(N2C(=O)OC[C@@H]2[C@@H](C)OC(C)(C)C)n1)c1ccc(-c2ccc(NC(=O)c3ccc4nccn4c3)cc2)cc1 | 5790 nM | 57 nM | 12.6 nM | –
CC(C)[C@H]1COC(=O)N1c1ccnc(N[C@@H](C)c2ccc(-c3ccc(NC(=O)COc4cccnc4)cc3)cc2)n1 | 8520 nM | 114 nM | 33.1 nM | IC50 [4]: 1020 nM; IC50 [5]: 1660 nM; IC50 [6]: 540 nM; IC50 [7]: 890 nM; IC50 [8]: 570 nM; IC50 [9]: 1180 nM
C[C@H](Nc1nccc(N2C(=O)OC[C@@H]2Cc2ccccc2)n1)c1ccc(-c2ccc(NC(=O)c3ccc4nccn4c3)cc2)cc1 | 9740 nM | 77.4 nM | 58.1 nM | –
CC(C)[C@H]1COC(=O)N1c1ccnc(N[C@@H](C)c2ccc(-c3ccc(NC(=O)c4cccnc4)cc3)cc2)n1 | 36700 nM | 509 nM | 109 nM | –
C[C@H](Nc1nccc(N2C(=O)OC[C@@H]2[C@@H](C)O)n1)c1ccc(-c2ccc(NC(=O)c3ccc4nccn4c3)cc2)cc1 | 15700 nM | 102 nM | 24.8 nM | –
CC(C)[C@H]1COC(=O)N1c1ccnc(N[C@@H](C)c2ccc(NC(=O)CCNC(=O)/C=C/c3cccnc3)cc2)n1 | 3240 nM | 284 nM | 22.4 nM | –
C[C@H](Nc1nccc(N2C(=O)OC[C@@H]2[C@H](C)F)n1)c1ccc(-c2ccc(NC(=O)c3ccc4nccn4c3)cc2)cn1 | 26100 nM | 369 nM | 24.3 nM | –
CC(C)[C@H]1COC(=O)N1c1ccnc(N[C@@H](C)c2ccc(NC(=O)CNC(=O)/C=C/c3cccnc3)cc2)n1 | 4430 nM | 362 nM | 15.1 nM | –
CC(C)[C@H]1COC(=O)N1c1ccnc(N[C@@H](C)c2ccc(NC(=O)CCCCNC(=O)/C=C/c3cccnc3)cc2)n1 | 6180 nM | 405 nM | 25.5 nM | –
CC(C)[C@H]1COC(=O)N1c1ccnc(N[C@@H](C)c2ccc(-c3ccc(NC(=O)c4cnccn4)cc3)cc2)n1 | 19700 nM | 579 nM | 241 nM | –
CC(C)[C@H]1COC(=O)N1c1ccnc(N[C@@H](C)c2ccc(-c3ccc(NC(=O)NCc4cccnc4)cc3)cc2)n1 | 27000 nM | 1020 nM | 374 nM | –
C[C@H](Nc1nccc(N2C(=O)OC[C@@H]2[C@H](C)F)n1)c1ccc(-c2ccc(NC(=O)/C=C/c3cccnc3)cc2)cc1 | 6850 nM | 59.3 nM | 24.4 nM | –
C[C@H](Nc1nccc(N2C(=O)OC[C@@H]2[C@H](C)F)n1)c1ccc(-c2ccc(NC(=O)COc3cccnc3)cc2)cn1 | 21100 nM | 419 nM | 32.2 nM | –
C[C@H](Nc1nccc(N2C(=O)OC[C@@H]2[C@H](C)F)n1)c1ccc(-c2ccc(NC(=O)c3ccc4nccn4c3)cc2)cc1 | 7330 nM | 231 nM | 39.8 nM | –
CC(C)[C@H]1COC(=O)N1c1ccnc(N[C@@H](C)c2ccc(-c3ccc(NC(=O)c4cc5cnccc5[nH]4)cc3)cc2)n1 | 9160 nM | 171 nM | 127 nM | –
CC(C)[C@H]1COC(=O)N1c1ccnc(N[C@@H](C)c2ccc(-c3ccc(NC(=O)c4cc5ncccc5o4)cc3)cc2)n1 | 5720 nM | 232 nM | 279 nM | –
C[C@H](Nc1nccc(N2C(=O)OC[C@@H]2Cc2ccccc2)n1)c1ccc(-c2ccc(NC(=O)COc3cccnc3)cc2)cc1 | 35900 nM | 294 nM | 65.4 nM | –
C[C@H](Nc1nccc(N2C(=O)OC[C@@H]2c2ccccc2)n1)c1ccc(-c2ccc(NC(=O)/C=C/c3cccnc3)cc2)cc1 | 36500 nM | 147 nM | 221 nM | –
C[C@H](Nc1nccc(N2C(=O)OC[C@@H]2[C@@H](C)OC(C)(C)C)n1)c1ccc(-c2ccc(NC(=O)/C=C/c3cccnc3)cc2)cc1 | 14700 nM | 78.7 nM | 42.5 nM | –
C[C@H](Nc1nccc(N2C(=O)OC[C@@H]2[C@@H](C)OC(C)(C)C)n1)c1ccc(-c2ccc(NC(=O)COc3cccnc3)cc2)cc1 | 33900 nM | 252 nM | 51.4 nM | –
C[C@H](Nc1nccc(N2C(=O)OC[C@@H]2[C@H](C)F)n1)c1ccc(-c2ccc(NC(=O)/C=C/c3cccnc3)cc2)cn1 | 14000 nM | 342 nM | 53.2 nM | –
N#Cc1ccnc(N2C(=O)CC[C@H]2C(=O)N(c2cncc(F)c2)[C@H](C(=O)NC2CC(F)(F)C2)c2ccccc2Cl)c1 [IVOSIDENIB] | – | – | – | IC50 [10]: 560 nM; CI [11]: 0.88; IC50 [4]: 100000 nM; IC50 [5]: 3060 nM; viability at 1 µM [12]: 27.8%; Activity [13]: 49.6%; viability at 1 µM [14]: 37.8%; Activity [15]: 18%; IC50 [6]: 67200 nM; Activity [16]: 4.59%; CI [17]: 0.78; IC50 [18]: 2510 nM; IC50 [7]: 89300 nM; CI [19]: 0.88; IC50 [8]: 980 nM; IC50 [9]: 1020 nM
C[C@H](Nc1nccc(N2C(=O)OC[C@@H]2[C@@H](C)O)n1)c1ccc(-c2ccc(NC(=O)/C=C/c3cccnc3)cc2)cc1 | 6460 nM | 57 nM | 32.6 nM | –
CC(C)[C@H]1COC(=O)N1c1ccnc(N[C@@H](C)c2ccc(-c3ccc(NC(=O)c4ccc5nccn5c4)cc3)cc2)n1 | 9160 nM | 73.2 nM | 193 nM | IC50 [4]: 2660 nM; IC50 [5]: 3110 nM; IC50 [6]: 3260 nM; IC50 [7]: 1210 nM; IC50 [8]: 1460 nM; IC50 [9]: 3260 nM
CC(C)[C@H]1COC(=O)N1c1ccnc(N[C@@H](C)c2ccc(NC(=O)C3CCN(C(=O)/C=C/c4cccnc4)C3)cc2)n1 (stereo not given in full) | 3710 nM | 430 nM | 54.1 nM | –
